Assay results taken from patent US6514911B1, “Substituted oxadiazines useful as pesticides” (Uniroyal Chemical Company, Inc., priority 2002, dated 2003).

Key:
Type in all cases: in vivo
[1] = system: velvetleaf (Abutilon theophrasti Medik.) (VL); test: Postemergence herbicide test, foliar spray, velvetleaf; conditions: 3000 ppm foliar spray to drip point, treated six days after emergence, two weeks after treatment
Experimental: (§1) To illustrate the effectiveness of the previously described substituted oxadiazines of this invention as preemergence herbicides, 300 mg of the chemical was dissolved in a composition comprising 10 mL acetone to which 30 mg of tile emulsifying agent, ethoxylated sorbitan monolaurate, was added. The solution was diluted to 100 mL with distilled water. Ten milliliters of this 3000 ppm solution was diluted to 250 ppm with distilled water. The chemical was applied at the rate of 10 pounds/acre (11.2 kg/ha) by drenchings 46 mL of the 250 ppm solution on the surface of soil in 4½ inch (11.25 cm) plastic pots wherein seeds of the following weeds had been planted: velvetleaf (Abutilon theophrasti Medik.) (VL), To illustrate the effectiveness of the described substituted oxadiazines as postemergence herbicides, the 3000 ppm solution described under Example 5 was atomized with a conventional DeVilbiss™ sprayer, wetting the foliage to the drip point. The weeds, which were the same species as described in Example 5, were treated six days after emergence. The percent weed control was evaluated two weeks after treatment.

[2] = system: switchgrass (Panicum virgahim L.) (SG); test: Postemergence herbicide test, foliar spray, switchgrass; conditions: 3000 ppm foliar spray to drip point, treated six days after emergence, two weeks after treatment
Experimental: as §1, with “41⁄2” for “4½”, “switchgrass (Panicum […].) (SG),” for “velvetleaf (Abutilon theophrasti Medik.) (VL),”, “DeVilbissTM” for “DeVilbiss™”

[3] = system: prickly sida (Sida spinosa L.) (PS); test: Postemergence herbicide test, foliar spray, prickly sida; conditions: 3000 ppm foliar spray to drip point, treated six days after emergence, two weeks after treatment
Experimental: as §1, with “41⁄2” for “4½”, “prickly […] spinosa L.) (PS),” for “velvetleaf (Abutilon theophrasti Medik.) (VL),”, “DeVilbissTM” for “DeVilbiss™”

[4] = system: green foxtail (Setaria virdis (L.) Beauv.) (GF); test: Postemergence herbicide test, foliar spray, green foxtail; conditions: 3000 ppm foliar spray to drip point, treated six days after emergence, two weeks after treatment
Experimental: as §1, with “41⁄2” for “4½”, “green foxtail (Setaria […].) Beauv.) (GF).” for “velvetleaf (Abutilon theophrasti Medik.) (VL),”, “DeVilbissTM” for “DeVilbiss™”

[5] = system: barnyardgrass (Echinochloa crus-galli (L.) Beauv.) (BG); test: Preemergence herbicide test, soil drench, barnyardgrass; conditions: Echinochloa crus-galli, 336 h, 10 lbs/A (11.2 kg/ha) soil drench, two weeks after treatment, vs untreated checks, read-out: Percent Weed Control BG
How it was run: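 Compound formulated in acetone with ethoxylated sorbitan monolaurate, diluted to 250 ppm and drenched onto soil surface of seeded pots at 10 pounds/acre (11.2 kg/ha), preemergence. Percent weed control versus untreated checks scored two weeks after treatment.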

[6] = system: tall morningglory (Ipomoea purpurea (L.) Roth) (TM); test: Preemergence herbicide test, soil drench, tall morningglory; conditions: Ipomoea, 336 h, 10 lbs/A (11.2 kg/ha) soil drench, two weeks after treatment, vs untreated checks, read-out: Percent Weed Control TM
How it was run: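 Acetone/emulsifier formulation diluted to 250 ppm and drenched onto soil surface of seeded pots at 10 lb/acre (11.2 kg/ha), preemergence. Percent weed control versus untreated checks scored two weeks after treatment.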

Row | SMILES | Percent Weed Control VL [1] [%] | Percent Weed Control SG [2] [%] | Percent Weed Control PS [3] [%] | Percent Weed Control GF [4] [%] | pest or weed control at 11208.5 g/ha [5] [%] | pest or weed control at 11208.5 g/ha [6] [%]
1 | Fc1ccc(C2=NC(C(F)(F)F)(C(F)(F)F)N=C(C(F)(F)C(F)(F)F)O2)cc1Cl [Compound 20, 2-(3-chloro-4-fluorophenyl)-6-(pentafluoroethyl)-4,4-bis(trifluoromethyl)-4H-1,3,5-oxadiazine] | 70 | 30 | 70 | 0 | 100 | 100
2 | FC(F)(F)C(F)(F)C1=NC(C(F)(F)F)(C(F)(F)F)N=C(c2cccc(Cl)c2)O1 [Compound 13, 2-(3-chlorophenyl)-6-(pentafluoroethyl)-4,4-bis(trifluoromethyl)-4H-1,3,5-oxadiazine] | 100 | 90 | 100 | 100 | 100 | 100
3 | FC(F)(F)C(F)(F)C1=NC(C(F)(F)F)(C(F)(F)F)N=C(c2ccc(Br)cc2)O1 [Compound 25, 2-(4-bromophenyl)-6-(pentafluoroethyl)-4,4-bis(trifluoromethyl)-4H-1,3,5-oxadiazine] | 100 | 0 | 100 | 30 | 90 | 100
4 | FC(F)(F)C(F)(F)C1=NC(C(F)(F)F)(C(F)(F)F)N=C(c2ccc(Cl)cc2)O1 [Compound 24, 2-(4-chlorophenyl)-6-(pentafluoroethyl)-4,4-bis(trifluoromethyl)-4H-1,3,5-oxadiazine] | 50 | 20 | 100 | 0 | 90 | 100
5 | FC(F)(F)C1=NC(C(F)(F)F)(C(F)(F)F)N=C(c2cccc(Cl)c2)O1 [Compound 4, 2-(3-chlorophenyl)-4,4,6-tris(trifluoromethyl)-4H-1,3,5-oxadiazine] | 50 | 80 | 90 | 100 | 100 | 100
